Earlier results in US20040102462A1, “2-(2-amino-1,6-dihydro-6-oxo-purin-9-yl) methoxy-1,3-propanediol derivative” (priority 1994, published 2004).

Conditions: rats; % of the acyclovir dosed

- acyclovir recovered in the urinary recovery assay: 19%
SMILES: Nc1nc2c(ncn2COCCO)c(=O)[nH]1 [acyclovir, 2-(2-amino-1,6-dihydro-6-oxo-1,6-dihydro-purin-9-yl)methoxy-ethanol]
